Data set [1] concerns PC-6. The data set can be described thus: Concentration required to obtain half of the maximal inhibition for cell growth in human small cell lung cancer(PC-6) was determined by using MTT assay when the cells were exposed to compound for 72 hr. As to conditions: PC-6, Lung. The data set is classed as functional.
Data set [2] has as its system PC-6. In words: Concentration required to obtain half of the maximal inhibition for cell growth in vincristine-resistant cell line expressing P-glycoprotein (PC-6/VCR29-9) was determined by using MTT assay when the cells were exposed to compound for 72 hr. The format is functional. To be noted: Homo sapiens, PC-6, 72 h.
Another data set concerns PC-12. The data set can be described thus: Concentration required to obtain half of the maximal inhibition for cell growth in human non-small cell lung cancer cell line(PC-12) was determined by using MTT assay when the cells were exposed to compound for 72 hr. To be noted: PC-12, Lung. A general note: Tetrazolium assays rely on reduction of a dye to a coloured formazan, in cell work by metabolically active cells.

A short description of data set [3]: Solubility (JP1 at pH 1.2). As to conditions: JP1, pH 1.2. The data set is classed as physicochemical.
Data set [4] can be described thus: Solubility (JP2 at pH 6.8). To be noted: JP2, pH 6.8. The format is physicochemical.

By GI50 is commonly meant the concentration that inhibits growth by half. Higher therefore signals less potent growth inhibition. As usually defined, the solubility is how much of the substance goes into solution per volume. Read a high solubility as much dissolved substance.

≈ marks a conversion by molar mass, not a printed value.

As for `CC(=O)O[C@@]12CO[C@@H]1CC[C@@]1(C)[C@@H]3OC(C)(C)O[C@@H]3C3=C(C)[C@@H](OC(=O)[C@H](O)[C@@H](NC(=O)OC(C)(C)C)c4ccncc4)C[C@@](O)([C@@H](OC(=O)c4ccccc4)[C@@H]12)C3(C)C`, the GI50 in the data set on PC-6 [1] was 0.386 ng/mL (≈ 0.462 nM); in the data set with PC-6 [2], 3.84 ng/mL (≈ 4.6 nM); in the data set with PC-12, 0.038 ng/mL (≈ 0.0455 nM).
As for `CC(=O)O[C@@]12CO[C@@H]1C[C@H](O)[C@@]1(C)[C@@H]3OC(C)(C)O[C@@H]3C3=C(C)[C@@H](OC(=O)[C@H](O)[C@@H](NC(=O)OC(C)(C)C)c4ccncc4)C[C@@](O)([C@@H](OC(=O)c4ccccc4)[C@H]21)C3(C)C`, the solubility in data set [3] is 333 µg/mL (≈ 391000 nM); in data set [4] it was 57 µg/mL (≈ 67000 nM). The GI50 in the data set on PC-6 [1] came to 0.38 ng/mL (≈ 0.447 nM); in the data set with PC-6 [2] it was 13.5 ng/mL (≈ 15.9 nM); with PC-12, 0.665 ng/mL (≈ 0.781 nM).
Regarding `CC(=O)O[C@@]12CO[C@@H]1CC[C@@]1(C)[C@@H]3OC(C)(C)O[C@@H]3C3=C(C)[C@@H](OC(=O)[C@H](O)[C@@H](NC(=O)OC(C)(C)C)c4ccccn4)C[C@@](O)([C@@H](OC(=O)c4ccccc4)[C@@H]12)C3(C)C`, the GI50 with PC-6 [1] was 0.145 ng/mL (≈ 0.174 nM); in the data set on PC-6 [2] it was 0.538 ng/mL (≈ 0.644 nM); with PC-12, 0.116 ng/mL (≈ 0.139 nM).
On the same counts, the results for `CO[C@H]1C[C@H]2OC[C@@]2(OC(C)=O)[C@H]2[C@H](OC(=O)c3ccccc3)[C@]3(O)C[C@H](OC(=O)[C@H](O)[C@@H](NC(=O)OC(C)(C)C)c4ccncc4)C(C)=C([C@H]4OC(C)(C)O[C@H]4[C@]12C)C3(C)C` are 0.229 ng/mL (≈ 0.265 nM), 38.1 ng/mL (≈ 44 nM) and 2.26 ng/mL (≈ 2.61 nM).
For `CC(=O)O[C@@]12CO[C@@H]1C[C@@H]1C[C@@]13[C@@H]1OC(C)(C)O[C@@H]1C1=C(C)[C@@H](OC(=O)[C@H](O)[C@@H](NC(=O)OC(C)(C)C)c4ccncc4)C[C@@](O)([C@@H](OC(=O)c4ccccc4)[C@H]23)C1(C)C`, the GI50 was 7.03 ng/mL (≈ 8.44 nM) with PC-6 [1], over 100 ng/mL with PC-6 [2] and 33.7 ng/mL (≈ 40.5 nM) with PC-12.
On the same counts, the results for `CC(=O)O[C@@]12CO[C@@H]1CC[C@@]1(C)[C@@H]3OC(C)(C)O[C@@H]3C3=C(C)[C@@H](OC(=O)[C@H](O)[C@@H](NC(=O)OC(C)(C)C)c4ccccc4)C[C@@](O)([C@@H](OC(=O)c4ccccc4)[C@@H]12)C3(C)C` are 0.332 ng/mL (≈ 0.398 nM), 2.91 ng/mL (≈ 3.49 nM) and 0.151 ng/mL (≈ 0.181 nM).
On the same counts, the results for `CC(=O)O[C@@]12CO[C@@H]1C[C@@H](F)[C@@]1(C)[C@@H]3OC(C)(C)O[C@@H]3C3=C(C)[C@@H](OC(=O)[C@H](O)[C@@H](NC(=O)OC(C)(C)C)c4ccncc4)C[C@@](O)([C@@H](OC(=O)c4ccccc4)[C@H]21)C3(C)C` are 0.266 ng/mL (≈ 0.312 nM), 3.87 ng/mL (≈ 4.54 nM) and 0.13 ng/mL (≈ 0.152 nM).
Regarding `CC(=O)O[C@@]12CO[C@@H]1C[C@H](O)[C@@]1(C)C(=O)[C@H](O)C3=C(C)[C@@H](OC(=O)[C@H](O)[C@@H](NC(=O)OC(C)(C)C)c4ccccc4)C[C@@](O)([C@@H](OC(=O)c4ccccc4)[C@H]21)C3(C)C.O.O.O` [DOCETAXEL], the solubility in data set [3] and in data set [4] was under 4 µg/mL each time. Further, the GI50 in the data set with PC-6 [1] was 1.48 ng/mL; with PC-6 [2], 135 ng/mL; in the data set on PC-12, 42.2 ng/mL.
In the case of `CC(=O)O[C@H]1C(=O)[C@@]2(C)[C@H]([C@H](OC(=O)c3ccccc3)[C@]3(O)C[C@H](OC(=O)[C@H](O)[C@@H](NC(=O)c4ccccc4)c4ccccc4)C(C)=C1C3(C)C)[C@]1(OC(C)=O)CO[C@@H]1C[C@@H]2O` [PACLITAXEL], the solubility in data set [3] and in data set [4] was under 4 µg/mL in each case.
